# Experimental data reported in patent US12642780B2, “Methods and compositions to treat and prevent viral infections and acute respiratory distress syndrome” (priority 2020, dated 2026).
# Where two headings read alike, the source gives them in different places.
# What was measured:
# BMDM [1] = details: for recruitment of DRP1 to mitochondria / recruitment of p62 to mitochondria: metformin 0.5 mM
# BMDM [2] = assay: Q-PCR quantitation of cytokine mRNAs in LPS-stimulated BMDM; format: cell-based, mouse
# Method: RNA was extracted using AllPrep DNA/RNA Mini kit, and cDNA was synthesized using SuperScript™ VILO™ cDNA Synthesis Kit. mRNA expression was determined by QPCR in a CFX96 thermal cycler (Biorad) as described (Zhong et al., 2016). Data are presented in arbitrary units and calculated by the 2^(−ΔΔCT) method. Primer sequences were obtained from the NIH qPrimerDepot (http://mouseprimerdepot.nci.nih.gov) and provided by Integrated DNA technologies.
# NLRP3 inflammasome [3] = assay: NLRP3 inflammasome activation in human macrophages; format: cell-based; details: LPS 20 ng/ml 3 hrs, ATP 2 mM 30 min, metformin 0.5 mM 16 hrs
# NLRP3 inflammasome [4] = assay: NLRP3 inflammasome activation in LPS-primed mouse microglia; format: cell-based; details: different NLRP3 activators, metformin 0.5 mM 16 hrs
# [5] = test system: alum induced peritonitis model; assay: Alum-induced peritonitis; format: in vivo, mouse
# NLRP3 inflammasome [6] = assay: NLRP3 inflammasome activation in LPS-primed BMDM; format: cell-based, mouse
# Il6 and Il1b promoters = assay: ChIP-qPCR of transcription factor recruitment to Il6 and Il1b promoters in BMDM; format: cell-based, mouse; details: LPS
# Method: Cells were fixed using 0.75% formaldehyde for 10 min followed by 0.125 M glycine to stop the crosslinking reaction. […] Nuclei were pelleted at 1,000 g in a cold microfuge and resuspended in B buffer (50 mM Tris, pH 8.0, 5 mM EDTA and 1% SDS plus inhibitors). […] Nuclear extracts were immunoprecipitated with respective antibodies. The co-immunoprecipitated material was then subjected to qPCR analysis using specific primers.
# BMDM [7] = assay: Cytokine secretion by LPS-stimulated BMDM (ELISA); format: cell-based, mouse; details: LPS-stimulated BMDM, metformin 0.5 mM 16 hrs
# Source text: (§1) Paired antibodies (capture and detection) and standard recombinant mouse IL-1β (R&D Systems), and TNF and IL-6 (eBioscience) were used to determine mouse cytokine concentrations according to manufacturer's instructions.
# in vivo = details: male, C57BL/6, mouse, ip, 50 mg/kg
# Method: (§2) Pooled mice plasma (CD-1 (ICR) MSE00PLK2, BioIVT) was selected as blank matrix for standards and quality control samples. Sample preparation procedure was adopted from literatures with minor modifications. […] The samples mix were vortexed for 2 minutes then sonicated for 1 min and centrifuged at 6100 g for 10 min. Supernatants were transferred into a new set 96-well plate, and 10 μL were injected for LC-MS/MS analysis. […] The solution was then serially diluted with 50% methanol-water to obtain standard working solutions over a concentration range of 10-2000 ng/ml. The quality control (QC) samples were prepared in three concentrations: 10, 100, and 500 ng/ml.
# (§3) LC-MS/MS system was performed using an Agilent 1290 Infinity HPLC and HiP ALS (Autosampler) coupled with AB Sciex 6500 Q-Trap mass spectrometer. All data were acquired using Analyst (AB SCIEX v1.7.1). […] The mobile phase A was 20 mM ammonium acetate buffer in water and 100% acetonitrile as mobile phase B. A total 7 min gradient run with a flow rate of 0.8 ml/min was implemented. […] The mass spectrometer was operated in a positive mode using scheduled multiple reaction morning (sMRM).
# POLγ = POLγ activity assay in lysates of treated macrophages; format: cell-based, mouse
# LPS-induced ARDS = details: for protection from LPS-induced ARDS: last dose 30 min prior to 5 mg/kg LPS
# Method: Briefly, 5 mg/kg LPS or vehicle was i.p. injected and the mice were euthanized 8, 24 or 48 hrs later. […] In all cases, at the experimental endpoint the lungs were inflated with cold PBS, excised and fixed in 10% formalin for histological evaluation.
# as §1
# Lungs were fixed in 10% formalin for 24 hrs and embedded in paraffin, sectioned and stained with hematoxylin and eosin (H&E) to evaluate gross morphology and lung damage and inflammation; and with Sirius red to determine collagen buildup. Ten to twelve H&E stained sections from each animal were scored for the degree of lung inflammation and damage by two blinded mouse lung pathology experts as described (Jupelli et al., 2013), and the scores were averaged. Briefly, the degree of lung inflammation was assigned an arbitrary score of 0 (normal=no inflammation, no airway thickening, no edema), 1 (minimal cellular infiltration, and minimal edema), 2 (mild-moderate cellular infiltration, plus mild airway thickening and mild edema), 3 (severe cellular infiltration, plus diffuse airway thickening and severe edema) in 10-12 fields per mouse.
# Lung sections were subjected to incubation with antibodies specific for F4/80 (macrophage marker), myeloperoxidase (MPO, neutrophil marker), c/EBPb, NFATc2 and NFATc3. Stained areas were quantified using ImageJ software.
# NLRP3 inflammasome activation in the lung was detected by immunofluorescence co-staining with F4/80 and ASC antibodies. Briefly, lung sections were hydrated and boiled at 96° C. in citrate buffer 1× for 20 min. Sections were blocked with 2% BSA/PBS1X containing 1% normal horse serum for 1 hr at room temperature. F4/80 and ASC antibodies were incubated in blocking solution overnight at 4° C. After washing, Alexa secondary antibodies were added and the sections were incubated in 2% BSA/PBS1X for 1 hr at room temperature. Sections were washed, incubated with DAPI, and mounted using FluoSave. Sections were imaged through a Leica SP5 confocal microscope. The percentage of F4/80^+ cells with ASC specks were quantified in 18-26 high magnification fields from 4-5 mice per group.
# BMDM [8] = assay: Mitochondrial function in BMDM (TMRM, MitoSOX, cellular ATP); format: cell-based, mouse
# [9] = LC-MS/MS metformin concentration in plasma; details: 24 hrs after LPS challenge, oral and i.p.
# Method: as §2, §3
# [10] = BMDM, metformin 0.5 mM 16 h, LPS
# [11] = BMDM, metformin 0.5 mM 16 h, LPS 4 h
# [12] = LPS-primed BMDM, metformin 0.5 mM 16 h
# [13] = Cmpk2ΔMye mice, 50 mg/kg metformin
# [14] = therapeutic, 50 mg/kg i.p. after LPS
compound,measurement,setting,value
"CN(C)C(=N)NC(=N)N [metformin, N,N-dimethylbiguanide]",expression of CMPK2,"BMDM [1]; BMDM, LPS 4 hrs, metformin 0.5 mM 16 hrs",no effect
same,POLγ expression,"BMDM [1]; BMDM, metformin",no effect
same,AMPK phosphorylation,"BMDM [1]; BMDM, metformin 0.5 mM 16 h",increased
same,p38 or JNK MAP kinase activation,"BMDM [1]; BMDM, metformin 0.5 mM 16 hrs, LPS 30 min",blunted
same,nuclear translocation of NFAT family members and c/EBPb,"BMDM [1]; BMDM, metformin 0.5 mM 16 hrs, LPS 4 hrs",decreased
same,LPS-induced p65/RelA nuclear translocation or phosphorylation,"BMDM [1]; BMDM, metformin 0.5 mM overnight, LPS",did not interfere
same,STAT1 or STAT3 phosphorylation,"BMDM [1]; BMDM, metformin pretreatment, LPS",did not inhibit
same,recruitment of DRP1 to mitochondria,BMDM [1]; LPS primed cells,enhancing it
same,recruitment of DRP1 to mitochondria,BMDM [1]; LPS+ATP challenged macrophages,not affecting it
same,recruitment of p62 to mitochondria,BMDM [1]; LPS-primed cells not ATP exposed,enhanced
same,recruitment of p62 to mitochondria,BMDM [1]; after LPS+ATP stimulation,did not affect
same,Il1b and Il6 mRNA after metformin treatment,BMDM [2]; AMPKα1 silenced (shPrkaa1) LPS-treated macrophages,still declined
same,decline in Il1b and Il6 mRNA induction by LPS,"BMDM [2]; BMDM, metformin 0.5 mM 16 h",30-50%
same,induction of Ifnb and Ifng mRNAs,BMDM [2]; [10],did not inhibit induction
same,induction of Il10 mRNA,BMDM [2]; [10],potentiated induction
same,"other cytokine and chemokine mRNAs (Tnf, Il12, Il23, Ccl2, Ccl3, Ccl4, Ccl5)","BMDM [2]; BMDM, metformin 0.5 mM 16 h, LPS 100 ng/ml 4 hrs",little effect
same,Il1b and Il6 mRNA expression,BMDM [2]; LPS-stimulated Il10−/− BMDM,still inhibited
same,Casp1 p20 and IL-1β secretion,NLRP3 inflammasome [3],abrogated
same,Casp1 p20 and IL-1β secretion,NLRP3 inflammasome [4],abrogated
same,peritoneal IL-1β and IL-6 production,"[5]; metformin 0, 10, 50 mg/kg 30 min prior to i.p. alum",dose-dependent decline
same,peritoneal TNF production,[5]; metformin 10 or 50 mg/kg 30 min prior to i.p. alum,no effect
same,nigericin- and ATP-induced ASC speck formation,"NLRP3 inflammasome [6]; BMDM, metformin 0.5 mM 16 h",inhibited
same,"expression of inflammasome components NLRP3, ASC, pro-Casp1 and NEK7",NLRP3 inflammasome [6]; [11],no effect
same,pro-IL 1β protein,NLRP3 inflammasome [6]; [11],modestly decreased
same,inhibition of nigericin-induced ASC specks,"NLRP3 inflammasome [6]; BMDM, nigericin",incomplete
same,effect of AMPKα1 ablation on inhibition of Casp1 activation or IL-1β processing and secretion by metformin,NLRP3 inflammasome [6]; LPS-primed Ampkα1−/− BMDM stimulated with ATP,no effect
same,LDH release,"NLRP3 inflammasome [6]; LPS-primed BMDM with NLRP3 agonists, metformin 0.5 mM 16 hrs",reduced
same,gasdermin D (GSDMD) cleavage,NLRP3 inflammasome [6]; [12],inhibited
same,Casp1 activation and pro-IL-1β processing to mature IL-1β,"NLRP3 inflammasome [6]; LPS-primed macrophages with ATP, nigericin, alum or MSU, metformin 0.5 mM 16 h",inhibited
same,IL-1β and Casp1 p20 release,"NLRP3 inflammasome [6]; Ndufs4-deficient BMDM, LPS + ATP, metformin 0.5 mM 16 hrs",did not further reduce
same,effect on Casp1 activation and pro-IL-1β processing,NLRP3 inflammasome [6]; nigericin-challenged macrophages,relatively modest
same,Casp1 activation and IL-1β secretion,"NLRP3 inflammasome [6]; p62- and ATG7-deficient macrophages, LPS + ATP",still inhibited
same,c/EBPβ and NFATc1-4 recruitment to the Il6 promoter,Il6 and Il1b promoters,inhibited
same,IL-6 secretion,BMDM [7],inhibited
same,TNF release,BMDM [7],unaffected
same,concentration at 1 hr,in vivo,440 ± 389 ng/mL
same,POLγ activity,"POLγ; lysates of LPS-stimulated macrophages, assay mix lacking exogenous ATP",decreased
same,effect of AMPKα1 deficiency on POLγ expression or activity,POLγ; lysates of metformin treated LPS stimulated BMDM,no effect
same,POLγ activity,"POLγ; lysates of metformin treated LPS-stimulated macrophages, addition of ATP at 10 mM",fully restored
same,protection from LPS-induced ARDS,LPS-induced ARDS; 10 mg/kg i.p. three consecutive days,modest protective effect
same,protection from LPS-induced ARDS,LPS-induced ARDS; 50 mg/kg i.p. three consecutive days,strong protection
same,IL-1β and IL-6 in BALF,LPS-induced ARDS; 50 mg/kg prophylactic,decreased
same,TNF in BALF,LPS-induced ARDS; 50 mg/kg prophylactic,no effect
same,collagen buildup,LPS-induced ARDS; 50 mg/kg prophylactic,abrogated
same,"infiltration of inflammatory cells into bronchioles, vascular bed and lung parenchyma",LPS-induced ARDS; 50 mg/kg prophylactic,inhibited
same,macrophage and neutrophil infiltration,"LPS-induced ARDS; 50 mg/kg prophylactic, F4/80 and MPO staining",strongly inhibited
same,septa thickening,"LPS-induced ARDS; 50 mg/kg prophylactic, lung histology",prevented
same,c/EBPβ activation and IL-6 secretion to BALF,LPS-induced ARDS; [13],did inhibit
same,lung pathology or IL-1β secretion,LPS-induced ARDS; [13],did not result in noticeable improvement
same,preventive efficacy of oral metformin,LPS-induced ARDS; drinking water 400 mg/kg starting 48 hrs prior to LPS,as protective as injected metformin
same,ASC speck formation in lung,LPS-induced ARDS; prophylactic metformin,limited
same,c/EBPβ and NFAT activation in lung,LPS-induced ARDS; prophylactic metformin,limited
same,IL-1β in BALF,LPS-induced ARDS; [14],decreased
same,macrophage and neutrophil infiltration,LPS-induced ARDS; [14],inhibited
same,ATP or nigericin induced decrease of mitochondrial membrane potential and increase of mtROS,BMDM [8]; [12],blunted both responses
same,drop in ATP concentration,BMDM [8]; LPS-primed versus non-stimulated macrophages,larger drop
same,mitochondrial membrane potential,"BMDM [8]; non-stimulated macrophages, metformin alone",decreased
same,circulating concentrations,[9],equally low
